Measured values: ChEMBL document CHEMBL5370580, “Discovery of three-dimensional bicyclo[3.3.1]nonanols as novel heat shock protein 90 inhibitors” (Bioorg Med Chem, 2023)
The source made the active and inactive calls. No cut-off for these calls is given here.

What was measured:
HeLa [1] = assay: Anticancer activity against human HeLa cells assessed as cell growth inhibition measured after 72 hrs by MTT assay; assay type: functional, cell-based
[2] = Inhibition of HIF-1 mediated gene transcription activity in human HeLa cells co-expressing HRE dependent firefly luciferase reporter gene pre-incubated for 1 hrs followed by incubation at hypoxic condition for 12 hrs by luciferase reporter gene assay; assay type: cell-based
HeLa [3] = assay: Effect on CA9 mRNA expression in human HeLa cells at 1 to 100 uM pre-incubated for 1 hr followed by incubation at hypoxic condition for 12 hrs by semi-quantitative RT-PCR assay; assay type: functional, cell-based; conditions: dose 1-100 µM, time 13.0 hrs
Heat shock protein HSP90 [4] = target: T1, Heat shock protein HSP90 (Homo sapiens, UniProt P07900+P08238); assay: Inhibition of HSP90 in human HeLa cells assessed as reduction in ERK phosphorylation at 30 to 100 uM measured after 12 hrs by Western blot analysis; assay type: cell-based; conditions: dose 30-100 µM
HeLa [5] = assay: Effect on HSP70 protein expression in human HeLa cells at 30 to 100 uM measured after 24 hrs by Western blot analysis; assay type: functional, cell-based; conditions: dose 30-100 µM
HeLa [6] = assay: Effect on HIF-1alpha mRNA expression in human HeLa cells at 100 uM pre-incubated for 1 hr followed by incubation at hypoxic condition for 12 hrs by RT-PCR assay; assay type: functional, cell-based; conditions: time 13.0 hrs
[7] = Effect on HSP70 protein expression in human HeLa cells assessed as fold change at 100 uM measured after 24 hrs by immunoblotting analysis (reference value: 1); assay type: functional
[8] = target: T2, Heat shock factor protein 1 (Homo sapiens) (UniProt Q00613); assay: Activation of HSF1 in human HeLa cells assessed as increase in HSP27 mRNA expression at 100 uM measured after 12 hrs by Real-time PCR assay; assay type: cell-based
T2 sequence (whole entry): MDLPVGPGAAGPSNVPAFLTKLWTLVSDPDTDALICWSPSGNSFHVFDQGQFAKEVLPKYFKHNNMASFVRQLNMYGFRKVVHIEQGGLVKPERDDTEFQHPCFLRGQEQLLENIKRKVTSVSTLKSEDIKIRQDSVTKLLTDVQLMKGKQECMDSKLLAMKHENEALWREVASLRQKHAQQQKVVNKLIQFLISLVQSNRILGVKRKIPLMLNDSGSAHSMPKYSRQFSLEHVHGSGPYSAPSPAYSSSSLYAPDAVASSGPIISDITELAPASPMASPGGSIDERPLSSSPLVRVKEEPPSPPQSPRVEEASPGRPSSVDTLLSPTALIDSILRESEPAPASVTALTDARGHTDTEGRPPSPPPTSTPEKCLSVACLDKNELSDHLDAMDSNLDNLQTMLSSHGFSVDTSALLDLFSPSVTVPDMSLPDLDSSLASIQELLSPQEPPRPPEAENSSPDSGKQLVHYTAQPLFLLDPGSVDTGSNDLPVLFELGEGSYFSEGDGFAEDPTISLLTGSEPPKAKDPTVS

[9] = Effect on HSF1 protein expression in human HeLa cells assessed as fold change at 100 uM measured after 24 hrs by immunoblotting analysis (reference value: 1); assay type: functional
[10] = target: Hypoxia-inducible factor 1-alpha (Homo sapiens) (UniProt Q16665); assay: Induction of HIF-1alpha degradation in human HeLa cells assessed as reduction in CA9 protein expression upto 100 uM incubated for 12 hrs under hypoxia condition by Western blot analysis; assay type: cell-based
Chain of Hypoxia-inducible factor 1-alpha (Homo sapiens) (Q16665 whole entry, looked up): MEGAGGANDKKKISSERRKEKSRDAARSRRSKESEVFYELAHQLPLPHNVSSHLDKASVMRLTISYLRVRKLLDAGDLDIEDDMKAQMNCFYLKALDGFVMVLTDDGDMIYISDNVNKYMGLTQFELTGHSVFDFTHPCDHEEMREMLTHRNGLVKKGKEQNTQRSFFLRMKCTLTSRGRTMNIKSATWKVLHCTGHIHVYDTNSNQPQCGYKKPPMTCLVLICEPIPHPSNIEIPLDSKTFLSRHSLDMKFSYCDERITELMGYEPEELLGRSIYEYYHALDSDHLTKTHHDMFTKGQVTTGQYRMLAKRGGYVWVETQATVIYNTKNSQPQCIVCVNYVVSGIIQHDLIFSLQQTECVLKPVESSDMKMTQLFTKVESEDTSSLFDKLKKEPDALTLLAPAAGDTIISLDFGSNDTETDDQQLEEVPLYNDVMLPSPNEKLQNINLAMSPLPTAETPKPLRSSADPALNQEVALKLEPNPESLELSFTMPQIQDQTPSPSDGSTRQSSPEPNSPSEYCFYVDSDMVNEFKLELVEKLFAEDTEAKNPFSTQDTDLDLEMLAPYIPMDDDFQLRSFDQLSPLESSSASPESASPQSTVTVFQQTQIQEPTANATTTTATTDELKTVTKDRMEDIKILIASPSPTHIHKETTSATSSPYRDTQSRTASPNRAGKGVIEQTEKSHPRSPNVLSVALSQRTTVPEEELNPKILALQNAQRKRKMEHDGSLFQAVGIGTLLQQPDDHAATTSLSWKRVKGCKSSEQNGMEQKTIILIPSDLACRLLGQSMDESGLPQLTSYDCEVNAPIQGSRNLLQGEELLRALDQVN

HeLa [11] = assay: Effect on CA9 mRNA expression in human HeLa cells at 100 uM pre-incubated for 1 hr followed by incubation at hypoxic condition for 12 hrs by RT-PCR assay; assay type: functional, cell-based; conditions: time 13.0 hrs
[12] = target: Hypoxia-inducible factor 1-alpha (Homo sapiens) (UniProt Q16665); assay: Induction of HIF-1alpha degradation in human HeLa cells assessed as reduction in HIF-1alpha accumulation upto 100 uM incubated for 12 hrs under hypoxia condition by Western blot analysis; assay type: cell-based
Heat shock protein HSP90 [13] = target: T1, Heat shock protein HSP90; assay: Inhibition of recombinant human HSP90 ATPase activity expressed in Escherichia coli BL21 incubated for 3 hrs in presence of ATP by malachite green dye based microplate reader analysis
Heat shock protein HSP90 [14] = target: T1, Heat shock protein HSP90; assay: Inhibition of HSP90 in human HeLa cells assessed as reduction in p70s6k phosphorylation at 30 to 100 uM measured after 12 hrs by Western blot analysis; assay type: cell-based; conditions: dose 30-100 µM
HeLa [15] = assay: Effect on HIF-1alpha mRNA expression in human HeLa cells at 1 to 100 uM pre-incubated for 1 hr followed by incubation at hypoxic condition for 12 hrs by semi-quantitative RT-PCR assay; assay type: functional, cell-based; conditions: dose 1-100 µM, time 13.0 hrs
[16] = target: T2, Heat shock factor protein 1 (Homo sapiens); assay: Activation of HSF1 in human HeLa cells assessed as increase in HSP47 mRNA expression at 100 uM measured after 12 hrs by Real-time PCR assay; assay type: cell-based
Heat shock protein HSP90 [17] = target: T1, Heat shock protein HSP90; assay: Inhibition of HSP90 in human HeLa cells assessed as reduction in AKT phosphorylation at 30 to 100 uM measured after 12 hrs by Western blot analysis; assay type: cell-based; conditions: dose 30-100 µM
Heat shock protein HSP90 [18] = target: T1, Heat shock protein HSP90; assay: Inhibition of recombinant human HSP90 expressed in Escherichia coli BL21 assessed as increase in DTT induced insulin aggregation by measuring increase in absorbance at 100 uM pre-incubated for 1 hrs followed by DTT addition by microplate reader analysis
[19] = target: T2, Heat shock factor protein 1 (Homo sapiens); assay: Activation of HSF1 in human HeLa cells assessed as increase in HSP70 mRNA expression at 100 uM measured after 12 hrs by Real-time PCR assay; assay type: cell-based
HeLa [20] = assay: Effect on HSP90 protein expression in human HeLa cells at 30 to 100 uM measured after 24 hrs by Western blot analysis; assay type: functional, cell-based; conditions: dose 30-100 µM
[21] = Effect on HSP90 protein expression in human HeLa cells assessed as fold change at 100 uM measured after 24 hrs by immunoblotting analysis (reference value: 1); assay type: functional
[22] = Inhibition of recombinant luciferase (unknown origin) incubated for 10 mins by luminescence based microplate reader analysis
Heat shock protein HSP90 [23] = target: T1, Heat shock protein HSP90; assay: Inhibition of HSP90 in human HeLa cells assessed as reduction in CDK4 protein expression at 30 to 100 uM measured after 24 hrs by Western blot analysis; assay type: cell-based; conditions: dose 30-100 µM
[24] = Effect on CDK4 protein expression in human HeLa cells assessed as fold change at 100 uM measured after 24 hrs by immunoblotting analysis (reference value: 1); assay type: functional
[25] = Downregulation of p-AKT protein expression in human Hela cells assessed as fold change at 100 uM measured after 24 hrs by immunoblotting analysis (reference value: 1); assay type: functional
[26] = Effect on HSF1 protein expression in human HeLa cells assessed as fold change at 10 uM measured after 24 hrs by immunoblotting analysis (reference value: 1); assay type: functional
[27] = target: T2, Heat shock factor protein 1 (Homo sapiens); assay: Activation of HSF1 in human HeLa cells assessed as increase in HSP47 mRNA expression at 10 uM measured after 12 hrs by Real-time PCR assay; assay type: cell-based; conditions: filed as activator
[28] = Downregulation of p-AKT protein expression in human Hela cells assessed as fold change at 10 uM measured after 24 hrs by immunoblotting analysis (reference value: 1); assay type: functional
[29] = Effect on HSP90 protein expression in human HeLa cells assessed as fold change at 10 uM measured after 24 hrs by immunoblotting analysis (reference value: 1); assay type: functional
[30] = Downregulation of CDK4 protein expression in human Hela cells assessed as fold change at 10 uM measured after 24 hrs by immunoblotting analysis (reference value: 1); assay type: functional
[31] = Effect on HSP70 protein expression in human HeLa cells assessed as fold change at 10 uM measured after 24 hrs by immunoblotting analysis (reference value: 1); assay type: functional
[32] = target: T2, Heat shock factor protein 1 (Homo sapiens); assay: Activation of HSF1 in human HeLa cells assessed as increase in HSP70 mRNA expression at 10 uM measured after 12 hrs by Real-time PCR assay; assay type: cell-based; conditions: filed as activator
[33] = target: T2, Heat shock factor protein 1 (Homo sapiens); assay: Activation of HSF1 in human HeLa cells assessed as increase in HSP27 mRNA expression at 10 uM measured after 12 hrs by Real-time PCR assay; assay type: cell-based; conditions: filed as activator

| IC50 (HeLa [1]) [µM] | IC50 [2] [µM] | inhibition (Heat shock protein HSP90 [4]) | Activity [8] | Activity [10] | Activity [12] | inhibition (Heat shock protein HSP90 [14]) | Activity [16] | inhibition (Heat shock protein HSP90 [17]) | inhibition (Heat shock protein HSP90 [18]) | Activity [19] | Structure (SMILES) | Activity (HeLa [3]) | Activity (HeLa [5]) | Activity (HeLa [6]) | fold change (FC) [7] | fold change (FC) [9] | Activity (HeLa [11]) | Activity (HeLa [15]) | Activity (HeLa [20]) | fold change (FC) [21] | also measured |
| --- | --- | --- | --- | --- | --- | --- | --- | --- | --- | --- | --- | --- | --- | --- | --- | --- | --- | --- | --- | --- | --- |
| 44.8 | > 100 |  |  |  |  |  |  |  |  |  | CCCC[C@@H]1C[C@@H]2C(C(=O)OC)=C(O)[C@H](C(=O)OC)[C@@](O)([C@@H]1C(=O)OC)[C@H]2C(=O)O |  |  |  |  |  |  |  |  |  |  |
| 72.7 | > 100 |  |  |  |  |  |  |  |  |  | CCCC[C@@H]1C[C@@H]2C(C(=O)OCC(C)C)=C(O)[C@H](C(=O)OCC(C)C)[C@@](O)([C@@H]1C(=O)OCC(C)C)[C@H]2C(=O)OCC(C)C |  |  |  |  |  |  |  |  |  |  |
| 18.6 | 36.3 | Active | inactive | Active | Active | Active | inactive | Active | inactive | inactive | CCCC[C@@H]1C[C@@H]2C(C(=O)OCC(C)C)=C(O)[C@H](C(=O)OCC(C)C)[C@@](O)([C@@H]1C(=O)OCC(C)C)[C@H]2C(=O)O | Active | inactive | inactive | 0.97 | 0.9 | Active | inactive | inactive | 0.95 | IC50 (Heat shock protein HSP90 [13]): 45.8 µM; inhibition [22]: Active; inhibition (Heat shock protein HSP90 [23]): Active; fold change (FC) [24]: 0.52 |
| 22.6 | > 100 |  |  |  |  |  |  |  |  |  | CCCC[C@@H]1C[C@@H]2C(C(=O)OCC(C)C)=C(O)[C@H](C(=O)OC)[C@@](O)([C@@H]1C(=O)OCC(C)C)[C@H]2C(=O)O |  |  |  |  |  |  |  |  |  |  |
| > 100 | > 100 |  |  |  |  |  |  |  |  |  | COC(=O)C1=C(O)[C@H](C(=O)OC)[C@@]2(O)[C@H](C(=O)OC)[C@H](C)C[C@H]1[C@@H]2C(=O)O |  |  |  |  |  |  |  |  |  |  |
| 40.1 | 70.4 | Active | inactive | Active | Active | Active | inactive | Active | inactive | inactive | CCCC[C@@H]1C[C@@H]2C(C(=O)OCC(C)C)=C(O)[C@H](C(=O)OC)[C@@](O)([C@@H]1C(=O)OC)[C@H]2C(=O)O | Active | inactive | inactive | 0.95 | 1.02 | Active | inactive | inactive | 0.97 | fold change (FC) [25]: 0.82; inhibition [22]: Active; inhibition (Heat shock protein HSP90 [23]): Active; fold change (FC) [24]: 0.78 |
| 18.8 | 50.6 | Active | inactive | Active | Active | Active | inactive | Active | inactive | inactive | CC(C)COC(=O)C1=C(O)[C@H](C(=O)OCC(C)C)[C@@]2(O)[C@H](C(=O)OCC(C)C)[C@H](C)C[C@H]1[C@@H]2C(=O)O | Active | inactive | inactive | 0.99 | 0.98 | Active | inactive | inactive | 0.96 | fold change (FC) [25]: 0.51; IC50 (Heat shock protein HSP90 [13]): 95 µM; inhibition [22]: Active; inhibition (Heat shock protein HSP90 [23]): Active; fold change (FC) [24]: 0.6 |
|  |  |  |  |  |  |  |  |  |  |  | COC1=C2C[C@@H](C)C[C@H](OC)[C@H](O)[C@@H](C)/C=C(\C)[C@H](OC(N)=O)[C@@H](OC)/C=C\C=C(/C)C(=O)NC(=CC1=O)C2=O [GELDANAMYCIN] |  |  |  |  |  |  |  |  |  | fold change (FC) [26]: 1.06; Activity [27]: Active; fold change (FC) [28]: 0.7; fold change (FC) [29]: 0.93; fold change (FC) [30]: 0.71; fold change (FC) [31]: 1.96; Activity [32]: Active; Activity [33]: Active |
